# Test results: US8039504B2 (priority 2003, dated 2011)
# Where two headings read alike, the source gives them in different places.
# Legend:
# Test in all cases: microbe, parasite or virus in culture
# Type in all cases: cell-based
# Vaccinia virus (NYCBH) = conditions: Orthopoxvirus vaccinia, Vero, 72 h
# wild type cowpox virus = conditions: read-out: Cowpox EC50
# [1] = system: monkeypox virus (Zaire (V79-1-005-scab)); conditions: read-out: Monkeypox EC50
# camelpox = conditions: read-out: Camelpox EC50
# [2] = read-out: EC50 of reference standards in vaccinia CPE assay
Compound,EC50 (Vaccinia virus (NYCBH); read-out: Vaccinia EC50) [nM],EC50 (wild type cowpox virus) [nM],EC50 (Vaccinia virus (NYCBH); [2]) [nM],EC50 [1] [nM],EC50 (camelpox) [nM]
"O=C(NN1C(=O)[C@@H]2C3C=CC(C4CC43)[C@@H]2C1=O)c1ccccc1Cl (some centres unmarked) [Example 7, 2-Chloro-N-(3,3a,4,4a,5,5a,6,6a,- octahydro-1,3-dioxo-4,6-ethenocycloprop[f]isoindol-2(1H)-yl)-benzamide]",< 500,,,,
"O=C(Cc1ccccc1)NN1C(=O)[C@@H]2C3C=CC(C4CC43)[C@@H]2C1=O (some centres unmarked) [Example 25, N-(3,3a,4,4a,5,5a,6,6a,- octahydro-1,3-dioxo-4,6-ethenocycloprop[f]isoindol-2(1H)-yl)-benzeneacetamide]",500 to 1000,> 5000,,,
"Cc1ccc(C(=O)NN2C(=O)[C@@H]3C4C=CC(C5CC54)[C@@H]3C2=O)cc1 (some centres unmarked) [Example 22, 4-Methyl-N-(3,3a,4,4a,5,5a,6,6a,- octahydro-1,3-dioxo-4,6-ethanocycloprop[f]isoindol-2(1H)-yl)-benzamide]",< 500,1000 to 5000,,,
"O=C(O)CP(=O)(O)O [PAA, phosphonoacetic acid, reference compound]",,,985000 ± 85000,,
"O=C(NN1C(=O)[C@@H]2C3C=CC(C4CC43)[C@@H]2C1=O)c1ccccc1Br (some centres unmarked) [Example 6, 2-Bromo-N-(3,3a,4,4a,5,5a,6,6a,- octahydro-1,3-dioxo-4,6-ethenocycloprop[f]isoindol-2(1H)-yl)-benzamide]",500 to 1000,> 5000,,,
"O=C(NN1C(=O)[C@@H]2C3C=CC(C4CC43)[C@@H]2C1=O)c1ccccn1 (some centres unmarked) [Example 10, N-(3,3a,4,4a,5,5a,6,6a,- octahydro-1,3-dioxo-4,6-ethenocycloprop[f]isoindol-2(1H)-yl)-2-pyridinecarboxamide]",> 5000,> 5000,,,
"O=C(NN1C(=O)[C@@H]2C3CCC(CC3)[C@@H]2C1=O)c1ccc(Br)cc1 [Example 19, 4-Bromo-N-bicyclo[2.2.2]octane-2,3-dicarboximido-benzamide]",< 500,< 500,,,
"Cc1nc(C)c(C(=O)NN2C(=O)[C@@H]3C4C=CC(C5CC54)[C@@H]3C2=O)s1 (some centres unmarked) [Example 41, 2,4-Dimethyl-N-(3,3a,4,4a,5,5a,6,6a-octahydro-1,3-dioxo-4,6-ethenocycloprop[f]isoindol-2(1H)-yl)-thiazole-5-carboxamide]",< 500,1000 to 5000,,,
"O=C(NN1C(=O)[C@@H]2C3CCC(C4CC43)[C@@H]2C1=O)c1ccc(Br)cc1 (some centres unmarked) [Example 15, 4-Bromo-N-(3,3a,4,4a,5,5a,6,6a-octahydro-1,3-dioxo-4,6-ethanocycloprop[f]isoindol-2(1H)-yl)-benzamide]",< 500,< 500,,< 500,< 500
"O=C(NN1C(=O)[C@@H]2C3C=CC(C4CC43)[C@@H]2C1=O)c1ccc(Cl)cc1 (some centres unmarked) [Example 8, 4-Chloro-N-(3,3a,4,4a,5,5a,6,6a,- octahydro-1,3-dioxo-4,6-ethenocycloprop[f]isoindol-2(1H)-yl)-benzamide]",< 500,500 to 1000,,,
"O=C(NN1C(=O)[C@@H]2C3C=CC(C4CC43)[C@@H]2C1=O)c1cccc(Br)c1 (some centres unmarked) [Example 4, 3-Bromo-N-(3,3a,4,4a,5,5a,6,6a,- octahydro-1,3-dioxo-4,6-ethenocycloprop[f]isoindol-2(1H)-yl)-benzamide]",< 500,1000 to 5000,,,
"O=C1[C@@H]2C3C=CC(C4CC43)[C@@H]2C(=O)N1NC(=O)C12CC3CC(CC(C3)C1)C2 (some centres unmarked) [Example 24, N-(3,3a,4,4a,5,5a,6,6a,- octahydro-1,3-dioxo-4,6-ethenocycloprop[f]isoindol-2(1H)-yl)-tricyclo[3.3.1.13.7] decane-1-carboxamide]",< 500,500 to 1000,,< 500,< 500
"O=C(NN1C(=O)[C@@H]2C3C=CC(C4CC43)[C@@H]2C1=O)c1cccc(F)c1 (some centres unmarked) [Example 14, 3-Fluoro-N-(3,3a,4,4a,5,5a,6,6a,- octahydro-1,3-dioxo-4,6-ethenocycloprop[f]isoindol-2(1H)-yl)-benzamide]",< 500,1000 to 5000,,,
"O=C(NN1C(=O)[C@@H]2C3C=CC(C3)[C@@H]2C1=O)c1ccc(Cl)cc1Cl [Example 27, 2,4-Dichloro-N-(1,3,3a,4,7,7a-hexahydro-1,3,-dioxo-4,7-methano-2H-isoindol-2-yl)-benzamide]",500 to 1000,,,,
"O=C(NN1C(=O)[C@@H]2C3CCC([C@H]4C[C@@H]34)[C@@H]2C1=O)c1ccc(C(F)(F)F)cc1 [Example 21, 4-Trifluoromethyl-N-(3,3a,4,4a,5,5a,6,6a,- octahydro-1,3-dioxo-4,6-ethanocycloprop[f]isoindol-2(1H)-yl)-benzamide]",< 500,< 500,,,
"O=C(NN1C(=O)[C@@H]2C3C=CC(C4CC43)[C@@H]2C1=O)c1ccncc1 (some centres unmarked) [Example 2, N-(3,3a,4,4a,5,5a,6,6a,- octahydro-1,3-dioxo-4,6-ethenocycloprop[f]isoindol-2(1H)-yl)-4-pyridinecarboxamide]",< 500,1000 to 5000,,< 500,< 500
"COc1ccc(C(=O)NN2C(=O)[C@@H]3C4C=CC(C5CC54)[C@@H]3C2=O)cc1 (some centres unmarked) [Example 11, 4-Methoxy-N-(3,3a,4,4a,5,5a,6,6a,- octahydro-1,3-dioxo-4,6-ethenocycloprop[f]isoindol-2(1H)-yl)-benzamide]",1000 to 5000,> 5000,,,
"O=C(NN1C(=O)[C@@H]2C3C=CC(C4CC43)[C@@H]2C1=O)c1cccnc1 (some centres unmarked) [Example 9, N-(3,3a,4,4a,5,5a,6,6a,- octahydro-1,3-dioxo-4,6-ethenocycloprop[f]isoindol-2(1H)-yl)-3-pyridinecarboxamide]",< 500,> 5000,,,
"N#Cc1ccc(C(=O)NN2C(=O)[C@@H]3C4C=CC(C5CC54)[C@@H]3C2=O)cc1 (some centres unmarked) [Example 20, 4-Cyano-N-(3,3a,4,4a,5,5a,6,6a,- octahydro-1,3-dioxo-4,6-ethenocycloprop[f]isoindol-2(1H)-yl)-benzamide]",< 500,< 500,,,
"O=C(NN1C(=O)[C@@H]2C3C=CC(C3)[C@@H]2C1=O)c1ccc(Br)cc1 [Example 26, 4-Bromo-N-(1,3,3a,4,7,7a-hexahydro-1,3,-dioxo-4,7-methano-2H-isoindol-2-yl)-benzamide]",< 500,,,,
"O=C(NN1C(=O)[C@@H]2C3CCC(CC3)[C@@H]2C1=O)c1ccc(C(F)(F)F)cc1 [Example 29, 4-Trifluoromethyl-N-bicyclo [2.2.2]octane-2,3-dicarboximido-benzamide]",< 500,< 500,,,
"O=C(NN1C(=O)[C@@H]2C3C=CC([C@@H]2C1=O)C31CC1)c1cccc(Br)c1 [Example 23, 3-Bromo-N-(1′,3,3′a,4′,7,7′a-hexahydro-1′,3′,dioxospiro [cyclopropane-1,8′-[4,7]methano[2H]isoindol]-2′-yl)-benzamide]",< 500,,,,
"O=C(NN1C(=O)[C@@H]2C3C=CC(C4CC43)[C@@H]2C1=O)c1ccc([N+](=O)[O-])cc1 (some centres unmarked) [Example 12, 4-Nitro-N-(3,3a,4,4a,5,5a,6,6a,- octahydro-1,3-dioxo-4,6-ethenocycloprop[f]isoindol-2(1H)-yl)-benzamide]",< 500,< 500,,,
"O=C(NN1C(=O)[C@@H]2C3C=CC(C4CC43)[C@@H]2C1=O)c1ccc(F)cc1 (some centres unmarked) [Example 13, 4-Fluoro-N-(3,3a,4,4a,5,5a,6,6a,- octahydro-1,3-dioxo-4,6-ethenocycloprop[f]isoindol-2(1H)-yl)-benzamide]",< 500,500 to 1000,,,
"Nc1ccn(C[C@@H](CO)OCP(=O)(O)O)c(=O)n1 [CDV, (S)-1-(3-hydroxy-2-phosphonylmethoxypropyl)cytosine, reference compound]",,,84000 ± 15000,,
"O=C(NN1C(=O)[C@@H]2C3C=CC(C4CC43)[C@@H]2C1=O)c1cccc(Cl)c1 (some centres unmarked) [Example 5, 3-Chloro-N-(3,3a,4,4a, 5,5a,6,6a,- octahydro-1,3-dioxo-4,6-ethenocycloprop[f]isoindol-2(1H)-yl)-benzamide]",500 to 1000,500 to 1000,,,
"O=C(NN1C(=O)[C@@H]2C3C=CC(CC3)[C@@H]2C1=O)c1ccc(Br)cc1 [Example 18, 4-Bromo-N-bicyclo[2.2.2]oct-5-ene-2,3-dicarboximido-benzamide]",< 500,< 500,,,
"O=C(NN1C(=O)[C@@H]2C3C=CC(C4CC43)[C@@H]2C1=O)c1ccc(Br)cc1 (some centres unmarked) [Example 3, 4-Bromo-N-(3,3a,4,4a,5,5a,6,6a,- octahydro-1,3-dioxo-4,6-ethenocycloprop[f]isoindol-2(1H)-yl)-benzamide]",< 500,500 to 1000,,< 500,< 500
"O=C(NN1C(=O)C2CCCCC2C1=O)c1ccc(Br)cc1 (centres unmarked) [Example 17, 4-Bromo-N-(octahydro-1,3-dioxo-2H-isoindol-2-yl)-benzamide]",< 500,1000 to 5000,,,
"O=C(NN1C(=O)[C@@H]2C3C=CC(CC3)[C@@H]2C1=O)c1ccc(C(F)(F)F)cc1 [Example 28, 4-Trifluoromethyl-N-bicylo [2.2.2]oct-5-ene-2,3-dicarboximido-benzamide]",< 500,< 500,,,
